Measured values published in patent US20030054990A1, “Methods of using neural thread proteins to treat tumors and other conditions requiring the removal or destruction of cells” (Nymox Pharmaceutical Corporation, priority 2001, published 2003).
“And” between values parts separate entries of the source, which are not always exact repeats. Equal values may be shown once.

Tests used:
Format in all cases: cell-based
[1] = MTT assay, cytotoxicity in glioma cells; settings: glioma cells (ATCC), per cent of negative control, Tamoxifen 100 μM, AD7C-NTP 100-1000 ng/ml, read-out: Percent Of Viable Cells
Method: (§1) Cryopreserved glioma and neuroblastoma cells were acquired from the American Type Culture Collection (ATCC), Virginia. Cells were thawed and diluted in suspension media and centrifuged at 700 rpm for 7 minutes at 4° C. Cell pellets were then resuspended in CACO-2 media and cultured in standard 75 or 175 cm^2 flasks at 37° C., 5% CO2 until approximately confluent. The cells were then trypsinized and resuspended in CACO-2 media to achieve a final cell density of 1.5×10^5 cells/ml. 50 μl aliquots per sample were then added per well to 96 well plates.
(§2) For Experiment I, 50 μl of either PBS (phosphate buffered solution) (negative control), 100 μM tamoxifen in phosphate buffered saline PBS (positive control), or test article were added to each sample culture.
(§3) For Experiment II, 1 mM tamoxifen in DMSO (dimethylsulfoxide) was diluted to 100 μM concentration in CACO-2 media, and 100 μl per well was added to positive control wells. A vehicle control consisting of 1% DMSO in CACO-2 media was also added to this experiment. Other negative controls consisted of human and bovine serum albumin and other nontoxic polypeptides.
(§4) An MTT assay is a sensitive assay for the measurement of cell proliferation based upon the reduction of the tetrazolium salt 3,[4,5-dimethylthiazol-2-yl]-2,5-diphenyltetrazolium bromide (MTT).
(§5) Following incubations with control or test substances, media was aspirated and 100 μl MTT was added to each well. Plates were then incubated for 3 hours at 37° C., 5% CO2. MTT was then replaced with acidified isopropanol (0.4 N HCI) and the plates were stored overnight at 4° C., covered. Plates were then agitated gently for 1 minute on a rotary shaker and the difference between emission absorbance of 570 nm and background absorbance of 650 nm was measured spectrophotometrically on an automated plate reader.
(§6) Neuroblastoma and glioma cells were incubated for 24 hours following treatment with test materials or control solutions. MTT was added to all cultures at this time. Results are expressed as means absorbance differences and represented as per cent of negative control and are shown in Table 1 (cytotoxicity in glioma cells) and Table 2 (cytotoxicity in neuroblastoma cells).
(§7) Glioma cells and neuroblastma cells were used for this experiment. MTT was added to the plates following a 24 hour incubation with control or test solutions. Other plates were replenished with fresh media, control, or test solution at 24 hours and then read 3 days later. Results are expressed as mean absorbance differences and as per cent of negative control and are shown in Table 3 (glioma cells) and Table 4 (neuroblastoma cells).

[2] = test system: glioma cells; test: MTT assay, cytotoxicity in glioma cells; settings: Tamoxifen 100 μM, AD7C-NTP 100-1000 ng/ml; for ABS 570-650 Sample: single replicate
Method: as §1, §2, §3, §4, §5, §6, §7

[3] = MTT assay, cytotoxicity in neuroblastoma cells; settings: neuroblastoma cells (ATCC), per cent of negative control, Tamoxifen 100 μM, AD7C-NTP 100-1000 ng/ml, read-out: Percent Of Viable Cells
Method: as §1, §2, §3, §4, §5, §6, §7

[4] = test system: neuroblastoma cells; test: MTT assay, cytotoxicity in neuroblastoma cells; settings: Tamoxifen 100 μM, AD7C-NTP 100-1000 ng/ml; for Sample (absorbance difference): single replicate
Method: as §1, §2, §3, §4, §5, §6, §7

SMILES: CC/C(=C(\c1ccccc1)c1ccc(OCCN(C)C)cc1)c1ccccc1 [PC (Tamoxifen), tamoxifen]
- viability at 24 h, 100 µM ([1]; 24 hrs): 28%
- viability at 4 days, 100 µM ([1]; 4 days): 19%
- ABS 570-650 Mean ([2]; 24 hrs): 0.015
- ABS 570-650 Sample ([2]; 24 hrs): 0.017 and 0.012
- ABS 570-650 Mean ([2]; 4 days): 0.015
- ABS 570-650 Sample ([2]; 4 days): 0.018 and 0.012
- viability at 24 h, 100 µM ([3]; 24 hour incubation): 14%
- viability at 4 days, 100 µM ([3]; 4 day incubation): 25%
- Mean (absorbance difference) ([4]; 24 hour incubation): 0.010
- Sample (absorbance difference) ([4]; 24 hour incubation): 0.010 and 0.009
- Mean (absorbance difference) ([4]; 4 day incubation): 0.019
- Sample (absorbance difference) ([4]; 4 day incubation): 0.016
